# Results taken from patent US20250277028A1, “TARGETING AGENT” (JIKSAK BIOENGINEERING, INC., priority 2022, published 2025).
# Non-standard residues stand in square brackets, D forms with d. Residues, ends and D or L forms follow the SMILES beside them. *: point of attachment. Dolaproine = CO[C@@H]([C@@H]1CCCN1)[C@@H](C)C(=O)O; Dil = CC[C@H](C)[C@H](NC)[C@@H](CC(=O)O)OC; X1 = C[C@@H](N*)[C@@H](O)c1ccccc1; NMeV = CN[C@H](C(=O)O)C(C)C
# System: human motor neurons
# Assay: Pharmacological effect (axonal amount, Tuj1) of antibody-MMAE conjugate
# Assay type: cell-based
# Details: t-test, significance level p<0.05
# Description: Experiments were performed using human motor neurons, for which synaptogenesis was induced using microbeads coated with the extracellular domain of LRRTM2. Culture of cells, preparation of LRRTM2 beads and induction of presynapse were performed as described in Example 1.
# As the drug, a microtubule polymerization inhibitor monomethylauristatin E (MMAE: Cat. No. #HY-15575; MedChemExpress) was used. As the anti-SYT2 N-terminal antibody and the normal rabbit antibody for control, antibodies used in Example 1 were used. Conjugate of MMAE and the antibody was prepared using MagicLink™ kit (broadpharm). Preparation of conjugate was performed according to the manufacturer's protocols.
# After warming the neuronal medium at 37° C. for 30 minutes, 4-aminopyridine (Sigma Aldrich) was added to the medium to have a final concentration of 100 μM and mixed. In addition, conjugate was added to have a final concentration of 1 μg/mL and mixed. […]
# The axonal amount was obtained as the sum of the brightness (=(fluorescence intensity per pixel)×(pixel number)) of Tuj1 signals in the obtained fluorescence images. The relative amount of axon was calculated as the value normalized by the results obtained using the conjugate of the control normal rabbit antibody and MMAE set to 100%. […]
compound,measurement,value
"CC[C@H](C)[C@@H]([C@@H](CC(=O)N1CCC[C@H]1[C@H](OC)[C@@H](C)C(=O)N[C@H](C)[C@@H](O)c1ccccc1)OC)N(C)C(=O)[C@@H](NC(=O)[C@@H](NC)C(C)C)C(C)C [MMAE, monomethyl auristatin E] (H-[NMeV]V[Dil][Dolaproine]-X1)","axonal amount, difference from the control antibody group",no significant differences
